How the values were obtained:
[1] = test system: Histone 3 acetylation in peripheral blood mononuclear cells; assay: H3 acetylation in peripheral blood mononuclear cells of healthy donors (flow cytometry); type: cell-based, human
Description: Percentage of cells with H3 acetylation, as determined by flow cytometry, is shown.
Since H3 acetylation is a pharmacodynamic biomarker of Nstat activity, acetylation of H3 was examined in treated cells.

[2] = Single dose pharmacokinetics of VRx-3996 in patients given oral nanatinostat and valganciclovir; type: in vivo, humans; settings: Treatment C = 10 mg VRx-3996 p.o. and 900 mg Valganciclovir p.o., N 4
HDAC6 = target: T1, HDAC6 (Homo sapiens, UniProt Q9UBN7); settings: HDAC6, 10 μM HDAC Substrate 3
T1 sequence (Q9UBN7 1-1215): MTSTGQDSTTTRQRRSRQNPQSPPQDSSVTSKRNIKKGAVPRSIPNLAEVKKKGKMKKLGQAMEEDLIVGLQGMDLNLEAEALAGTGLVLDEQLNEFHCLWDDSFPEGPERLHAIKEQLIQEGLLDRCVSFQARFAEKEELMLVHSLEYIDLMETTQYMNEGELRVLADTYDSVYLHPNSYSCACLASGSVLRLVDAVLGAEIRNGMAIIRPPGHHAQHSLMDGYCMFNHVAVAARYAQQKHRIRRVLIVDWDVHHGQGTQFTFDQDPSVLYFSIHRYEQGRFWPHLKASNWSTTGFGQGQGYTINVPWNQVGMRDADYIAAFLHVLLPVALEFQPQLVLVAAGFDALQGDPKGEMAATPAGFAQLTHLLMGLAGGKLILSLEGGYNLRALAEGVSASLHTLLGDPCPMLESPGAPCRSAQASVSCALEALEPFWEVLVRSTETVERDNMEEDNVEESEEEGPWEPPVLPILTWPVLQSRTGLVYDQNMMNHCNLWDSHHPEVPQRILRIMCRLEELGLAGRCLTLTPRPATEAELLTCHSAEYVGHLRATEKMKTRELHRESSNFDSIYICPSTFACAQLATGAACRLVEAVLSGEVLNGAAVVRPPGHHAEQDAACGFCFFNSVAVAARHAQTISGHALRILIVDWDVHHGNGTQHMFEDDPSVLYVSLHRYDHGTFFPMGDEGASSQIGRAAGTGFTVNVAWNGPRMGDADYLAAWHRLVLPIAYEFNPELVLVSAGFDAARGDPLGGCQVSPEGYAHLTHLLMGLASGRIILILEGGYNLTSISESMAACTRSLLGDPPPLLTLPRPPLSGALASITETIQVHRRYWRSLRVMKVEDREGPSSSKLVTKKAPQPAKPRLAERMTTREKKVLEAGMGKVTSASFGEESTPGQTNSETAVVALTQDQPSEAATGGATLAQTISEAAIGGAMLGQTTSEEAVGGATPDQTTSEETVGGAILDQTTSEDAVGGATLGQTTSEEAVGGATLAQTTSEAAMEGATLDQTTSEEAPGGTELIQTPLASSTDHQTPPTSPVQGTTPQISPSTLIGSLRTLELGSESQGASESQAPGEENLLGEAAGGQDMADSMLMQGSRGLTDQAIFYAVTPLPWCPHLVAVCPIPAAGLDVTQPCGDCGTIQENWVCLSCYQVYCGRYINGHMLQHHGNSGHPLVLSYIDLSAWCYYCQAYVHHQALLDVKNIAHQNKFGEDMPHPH
Protocol: (§1) Briefly, all of the compounds are dissolved in DMSO. A series of dilutions of the compounds were prepared with 10% DMSO in HDAC assay buffer and 5 μl of the dilution was added to a 50 μl reaction so that the final concentration of DMSO is 1% in all of reactions. The compounds were pre-incubated in duplicate at RT for 1 hour in a mixture containing HDAC assay buffer, 5 μg BSA, HDAC enzyme (see Table 7) and a the particular HDACi. After 1 hour, the enzymatic reactions were initiated by the addition of HDAC substrate (BPS Bioscience) to a final concentration of 10 μM or 2 μM. The enzymatic reaction proceeded for 30 minutes at 37° C.
(§2) HDAC activity assays were performed in duplicates at each concentration. The fluorescent intensity data were analyzed using the computer software, Graphpad Prism. In the absence of the compound, the fluorescent intensity (Ft) in each data set was defined as 100% activity. In the absence of HDAC, the fluorescent intensity (Fb) in each data set was defined as 0% activity. The percent activity in the presence of each compound was calculated according to the following equation: % activity=(F−Fb)/(Ft−Fb), where F=the fluorescent intensity in the presence of the compound. […]

[3] = test system: P3HR1 Burkitt's lymphoma cells; assay: Cell death by 7AAD staining after Nstat, washout, then ganciclovir
Protocol: P3HR1 Burkitt's lymphoma cells were incubated with DMSO (solvent control) or Nstat for 3 days. After that time cell cultures were washed re-fed with ganciclovir (GCV) for an additional 3 days. All test conditions were run in triplicate. Cell death was measured by 7AAD staining.

HDAC3/NCOR2 = HDAC3/NCOR2 (Homo sapiens, UniProt O15379); assay: HDAC activity assay (fluorescence); type: biochemical; settings: HDAC3/NCOR2, 10 μM HDAC Substrate 3
Protocol: as §1, §2

HDAC1 = HDAC1 (Homo sapiens, UniProt Q13547); assay: HDAC activity assay (fluorescence); type: biochemical; settings: HDAC1, 10 μM HDAC Substrate 3
Protocol: as §1, §2

HDAC2 = HDAC2 (Homo sapiens, UniProt Q92769); type: biochemical; settings: HDAC2, 10 μM HDAC Substrate 3
Protocol: as §1, §2

[4] = in vivo; cited from earlier work

Chain of HDAC1 (Q13547 whole entry): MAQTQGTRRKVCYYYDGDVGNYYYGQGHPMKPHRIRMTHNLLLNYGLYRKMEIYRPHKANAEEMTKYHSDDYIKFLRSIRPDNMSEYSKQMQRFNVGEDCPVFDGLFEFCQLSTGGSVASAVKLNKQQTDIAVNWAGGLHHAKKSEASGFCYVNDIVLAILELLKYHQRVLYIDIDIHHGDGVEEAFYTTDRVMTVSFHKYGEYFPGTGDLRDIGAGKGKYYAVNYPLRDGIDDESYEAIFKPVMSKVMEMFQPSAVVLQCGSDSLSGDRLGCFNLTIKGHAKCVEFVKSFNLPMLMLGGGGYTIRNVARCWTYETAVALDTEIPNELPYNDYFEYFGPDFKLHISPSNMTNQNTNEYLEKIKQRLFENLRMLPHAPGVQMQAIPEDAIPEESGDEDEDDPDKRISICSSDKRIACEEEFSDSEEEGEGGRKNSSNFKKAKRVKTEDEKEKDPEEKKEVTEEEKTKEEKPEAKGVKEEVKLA
Chain of HDAC3/NCOR2 (O15379 whole entry): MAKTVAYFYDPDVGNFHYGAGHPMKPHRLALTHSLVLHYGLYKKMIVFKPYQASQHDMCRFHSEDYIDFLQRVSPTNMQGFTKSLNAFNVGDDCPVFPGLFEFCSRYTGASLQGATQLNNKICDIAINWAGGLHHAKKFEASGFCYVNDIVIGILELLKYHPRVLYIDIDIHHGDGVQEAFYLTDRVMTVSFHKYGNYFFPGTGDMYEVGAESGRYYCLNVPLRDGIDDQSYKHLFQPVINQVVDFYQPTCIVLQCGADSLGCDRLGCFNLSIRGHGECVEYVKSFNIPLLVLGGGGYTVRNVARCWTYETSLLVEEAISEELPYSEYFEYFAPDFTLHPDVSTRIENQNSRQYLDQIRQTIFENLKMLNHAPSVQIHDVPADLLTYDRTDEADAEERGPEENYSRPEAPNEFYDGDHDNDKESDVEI
Chain of HDAC3/NCOR2 (Q9Y618 395-489 partner limits assumed): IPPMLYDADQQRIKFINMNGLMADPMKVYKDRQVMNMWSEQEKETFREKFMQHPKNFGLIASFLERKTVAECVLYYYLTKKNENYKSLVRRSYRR
Chain of HDAC2 (Q92769 whole entry): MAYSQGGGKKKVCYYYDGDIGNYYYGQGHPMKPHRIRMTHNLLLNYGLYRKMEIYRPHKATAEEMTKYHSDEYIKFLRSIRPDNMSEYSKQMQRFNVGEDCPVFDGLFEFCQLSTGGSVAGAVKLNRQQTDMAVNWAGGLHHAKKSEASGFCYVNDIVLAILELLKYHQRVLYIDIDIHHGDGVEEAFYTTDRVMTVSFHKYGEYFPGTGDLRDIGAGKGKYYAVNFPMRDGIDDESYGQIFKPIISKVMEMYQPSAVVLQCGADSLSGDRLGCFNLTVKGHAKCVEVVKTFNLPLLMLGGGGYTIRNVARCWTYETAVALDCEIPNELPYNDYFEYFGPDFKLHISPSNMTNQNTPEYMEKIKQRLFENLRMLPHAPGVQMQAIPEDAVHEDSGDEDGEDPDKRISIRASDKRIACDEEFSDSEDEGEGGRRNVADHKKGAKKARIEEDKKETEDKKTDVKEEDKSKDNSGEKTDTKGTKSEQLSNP

In the case of `O=C(NO)c1cnc(N2C[C@@H]3[C@H](C2)[C@H]3NCc2ccc3cc(F)ccc3n2)nc1` [Nstat, 2-((1R,5S,6s)-6-(((6-fluoroquinolin-2-yl)methyl)amino)-3-azabicyclo[3.1.0]hexan-3-yl)-N-hydroxypyrimidine-5-carboxamide], the “duration of effect on H3 acetylation” value ([1]; PBMC from healthy donors, doses down to 10 nM, FIG. 3) is reported as “long-lasting”, the “potency in inducing elevated levels of Histone 3 acetylation” value ([1]; PBMC of healthy volunteers, even at a dose of 100 nM, FIG. 2) is reported as “much more potent than entinostat” and the “AUC, geometric mean” value [2] is reported as 322 ng·h/mL. For the same molecule, the IC50 (HDAC6) was 0.45 µM, the “increase of cytotoxic activity when combined with Ganciclovir” value [3] was roughly 40% and the “cell cytotoxicity when combined with ganciclovir” value ([3]; EBV infected cell line P3HR1, effect seen even after Nstat removal) was “increases cell cytotoxicity”. The IC50 (HDAC3/NCOR2) was 0.012 µM, the IC50 (HDAC1) was 0.0036 µM and the IC50 (HDAC2) was 0.012 µM.
In the case of `Nc1ccccc1NC(=O)c1ccc(CNC(=O)OCc2cccnc2)cc1` [MS-275, entinostat], the elimination half-life [4] is given as “approximately 36 hours”.

— patent US20220226322A1, “METHODS OF TREATING VIRALLY ASSOCIATED CANCERS WITH HISTONE DEACETYLASE INHIBITORS” (priority 2019, published 2022)
